Experimental data reported in US6316410A, “Parathyroid hormone analogues for the treatment of osteoporosis” (National Research Council of Canada, priority 1999, dated 2001).
“Also recorded” adds a separate entry of the source. Where two headings read alike, the source gives them in different places. Positions of bridges follow the written chain, without caps; N, C: chain ends. No end group written: not given here.

How the values were obtained:
[1] = tested on: adenylyl cyclase of ROS 17/2 cells; type: cell-based, rat
Text: Adenylyl cyclase activities of 4- to 5-day cultures of ROS 17/2 cells in 24-well plates were estimated from the rate of formation of [^3 H]-cAMF from the cellular ATP pool, which had been labelled with [^3 H]-adenine before exposure to hPTH or its analogues in accordance with Jouishomme, H. Whitfield, J. F.; Gagnon, L.; Maclean, S.; Isaacs, R.; Chakravarthy, B.; Durkin, J.; Neugebauer, W.; Willick, G.; Rixon, R. H. Further Definition of the Protein Kinase C Activation Domain of the Parathyroid Hormone. J. Bone Miner. Res. 1994, 9, 943-949.

[2] = tested on: ovariectomized (OVX) rats; assay: Growth of trabeculae in the distal femurs of ovariectomized (OVX) rats, injections week 9 to 15 after OVX; type: in vivo; settings: 5 nmoles/100 g of body weight s.c. daily, FIG. 8, in words
Text: Rats were OVXed (OVX) or sham-OVXed (sham) and given daily subcutaneous injections of vehicle between the end of the 9th week and the end of the 15th week after OVX. Injection quantities were 5 nmoles/100 g of body weight. OVXed rats received daily subcutaneous injections of: vehicle (OVX), hPTH(1-31)NH2, 5 nmol (linear), [Leu^27 ]cyclo(Glu^22 -Lys^26)hPTH(1-28)NH2, 5 nmol (cyclic), or [Glu^17,Leu^27]cyclo(Lys^13 -Glu^17,Glu^22 Lys^26)hPTH(1-31)NH2, 5nmol(double cyclic). The femurs were demineralized and stained with Sanderson's rapid bone stain. […] This improvement is not correlated with their relative AC-stimulating activities, but likely results from greater stability to proteolytic attack and greater ability to be transported from the site of injection.

ovariectomized rat model = settings: ovariectomized rats, literature; cited from earlier work
[3] = ROS 17/2 cells, concentration required to obtain half-maximal activity

Q: What does the source list for “[Glu^17, Leu^27 ]cyclo(Lys^13 -Glu^17, Glu^22 -Lys^26)-hPTH-(1-31)-NH2 (SVSEIQLMHNLGKHLNEMERVEWLRKLLQDV-NH2; lactam 13-17, 22-26; N-terminus assumed; SMILES CC[C@H](C)[C@H](NC(=O)[C@H](CCC(=O)O)NC(=O)[C@H](CO)NC(=O)[C@@H](NC(=O)[C@@H](N)CO)C(C)C)C(=O)N[C@@H](CCC(N)=O)C(=O)N[C@@H](CC(C)C)C(=O)N[C@@H](CCSC)C(=O)N[C@@H](Cc1c[nH]cn1)C(=O)N[C@@H](CC(N)=O)C(=O)N[C@@H](CC(C)C)C(=O)NCC(=O)N[C@H]1CCCCNC(=O)CC[C@@H](C(=O)N[C@@H](CCSC)C(=O)N[C@@H](CCC(=O)O)C(=O)N[C@@H](CCCNC(=N)N)C(=O)N[C@H](C(=O)N[C@H]2CCC(=O)NCCCC[C@@H](C(=O)N[C@@H](CC(C)C)C(=O)N[C@@H](CC(C)C)C(=O)N[C@@H](CCC(N)=O)C(=O)N[C@@H](CC(=O)O)C(=O)N[C@H](C(N)=O)C(C)C)NC(=O)[C@H](CCCNC(=N)N)NC(=O)[C@H](CC(C)C)NC(=O)[C@H](Cc3c[nH]c4ccccc34)NC2=O)C(C)C)NC(=O)[C@H](CC(N)=O)NC(=O)[C@H](CC(C)C)NC(=O)[C@H](Cc2c[nH]cn2)NC1=O) [double cyclic (13-17 and 22-26 lactams) hPTH 1-31 amide analogue]”?
A: AC-Stimulation (ED50%, nM) [1, 3]: 13.2 nM; increasing the thickness of the remaining trabeculae [2]: better than its monocyclic counterpart; also recorded: significantly better than the linear molecule

Q: Which “AC-Stimulation (ED50%, nM)” value [1] does the source give for “SVSEIQLMHNLGKHLNSMERVEWLRKKL-NH2 [hPTH(1-28)NH2, reference compound]” here?
A: 24 nM

Q: With “[Leu^27 ]cyclo(Glu^22 -Lys^26)-hPTH-(1-29)-NH2 (SVSEIQLMHNLGKHLNSMERVEWLRKLLQ-NH2; lactam 22-26; N-terminus assumed; SMILES CC[C@H](C)[C@H](NC(=O)[C@H](CCC(=O)O)NC(=O)[C@H](CO)NC(=O)[C@@H](NC(=O)[C@@H](N)CO)C(C)C)C(=O)N[C@@H](CCC(N)=O)C(=O)N[C@@H](CC(C)C)C(=O)N[C@@H](CCSC)C(=O)N[C@@H](Cc1c[nH]cn1)C(=O)N[C@@H](CC(N)=O)C(=O)N[C@@H](CC(C)C)C(=O)NCC(=O)N[C@@H](CCCCN)C(=O)N[C@@H](Cc1c[nH]cn1)C(=O)N[C@@H](CC(C)C)C(=O)N[C@@H](CC(N)=O)C(=O)N[C@@H](CO)C(=O)N[C@@H](CCSC)C(=O)N[C@@H](CCC(=O)O)C(=O)N[C@@H](CCCNC(=N)N)C(=O)N[C@H](C(=O)N[C@H]1CCC(=O)NCCCC[C@@H](C(=O)N[C@@H](CC(C)C)C(=O)N[C@@H](CC(C)C)C(=O)N[C@@H](CCC(N)=O)C(N)=O)NC(=O)[C@H](CCCNC(=N)N)NC(=O)[C@H](CC(C)C)NC(=O)[C@H](Cc2c[nH]c3ccccc23)NC1=O)C(C)C) [[Leu^27]c(Glu^22 -Lys^26)hPTH(1-29)NH2, 22-26 lactam cyclic analogue of human parathyroid hormone 1-29 amide with Leu27]” as the molecule, how does the “AC-Stimulation (ED50%, nM)” value [1, 3] read?
A: 8.4 nM

Q: Which “anabolic activity / restoration of bone loss” value (ovariectomized rat model) does the source give for “Ser Val Ser Glu Ile Gln Leu Met His Asn Leu Gly Lys His Leu Asn Ser Met Glu Arg Val Glu Trp Leu Arg Lys Lys Leu Gin Asp Val-NH2 (SVSEIQLMHNLGKHLNSMERVEWLRKKLQDV-NH2) [hPTH-(1-31)-NH2, linear human parathyroid hormone fragment 1-31 amide]” here?
A: fully active in the restoration of bone loss

Q: For “SVSEIQLMHNLGKHLNSMERVEWLRKKLQ-NH2 [hPTH(1-29)NH2, reference compound]”, which “AC-Stimulation (ED50%, nM)” value [1] is on record?
A: 24 nM

Q: For “hPTH(1-30)NH2 (SVSEIQLMHNLGKHLNSMERVEWLRKKLQD-NH2; UniProt P01270 32-61, looked up, fragment) [linear human parathyroid hormone fragment 1-30 amide]”, which “anabolic activity / restoration of bone loss” value (ovariectomized rat model) is on record?
A: only with much higher doses than used with the (1-31) analogue

Q: Which “AC-Stimulation (ED50%, nM)” value [1, 3] does the source give for “[Leu^27 ]cyclo(Glu^22 -Lys^26)-hPTH-(1-28)-NH2 (SVSEIQLMHNLGKHLNSMERVEWLRKLL-NH2; lactam 22-26; N-terminus assumed; SMILES CC[C@H](C)[C@H](NC(=O)[C@H](CCC(=O)O)NC(=O)[C@H](CO)NC(=O)[C@@H](NC(=O)[C@@H](N)CO)C(C)C)C(=O)N[C@@H](CCC(N)=O)C(=O)N[C@@H](CC(C)C)C(=O)N[C@@H](CCSC)C(=O)N[C@@H](Cc1c[nH]cn1)C(=O)N[C@@H](CC(N)=O)C(=O)N[C@@H](CC(C)C)C(=O)NCC(=O)N[C@@H](CCCCN)C(=O)N[C@@H](Cc1c[nH]cn1)C(=O)N[C@@H](CC(C)C)C(=O)N[C@@H](CC(N)=O)C(=O)N[C@@H](CO)C(=O)N[C@@H](CCSC)C(=O)N[C@@H](CCC(=O)O)C(=O)N[C@@H](CCCNC(=N)N)C(=O)N[C@H](C(=O)N[C@H]1CCC(=O)NCCCC[C@@H](C(=O)N[C@@H](CC(C)C)C(=O)N[C@@H](CC(C)C)C(N)=O)NC(=O)[C@H](CCCNC(=N)N)NC(=O)[C@H](CC(C)C)NC(=O)[C@H](Cc2c[nH]c3ccccc23)NC1=O)C(C)C) [[Leu^27]c(Glu^22 -Lys^26)hPTH(1-28)NH2, 22-26 lactam cyclic analogue of human parathyroid hormone 1-28 amide with Leu27]” here?
A: 9.6 nM

B1: [Leu^27]cyclo(Glu^22-Lys^26)-hPTH-(1-28)-NH2 (peptide)
peptide: SVSEIQLMHNLGKHLNSMERVEWLRKLL-NH2
modifications: lactam 22-26; N-terminus assumed
SMILES: CC[C@H](C)[C@H](NC(=O)[C@H](CCC(=O)O)NC(=O)[C@H](CO)NC(=O)[C@@H](NC(=O)[C@@H](N)CO)C(C)C)C(=O)N[C@@H](CCC(N)=O)C(=O)N[C@@H](CC(C)C)C(=O)N[C@@H](CCSC)C(=O)N[C@@H](Cc1c[nH]cn1)C(=O)N[C@@H](CC(N)=O)C(=O)N[C@@H](CC(C)C)C(=O)NCC(=O)N[C@@H](CCCCN)C(=O)N[C@@H](Cc1c[nH]cn1)C(=O)N[C@@H](CC(C)C)C(=O)N[C@@H](CC(N)=O)C(=O)N[C@@H](CO)C(=O)N[C@@H](CCSC)C(=O)N[C@@H](CCC(=O)O)C(=O)N[C@@H](CCCNC(=N)N)C(=O)N[C@H](C(=O)N[C@H]1CCC(=O)NCCCC[C@@H](C(=O)N[C@@H](CC(C)C)C(=O)N[C@@H](CC(C)C)C(N)=O)NC(=O)[C@H](CCCNC(=N)N)NC(=O)[C@H](CC(C)C)NC(=O)[C@H](Cc2c[nH]c3ccccc23)NC1=O)C(C)C
Q: For B1, which AC-Stimulation (ED50%, nM) (PTH receptor) is on record?
A: 9.6 nM

B2: [Leu^27]cyclo(Glu^22-Lys^26)-hPTH-(1-29)-NH2 (peptide)
peptide: SVSEIQLMHNLGKHLNSMERVEWLRKLLQ-NH2
modifications: lactam 22-26; N-terminus assumed
SMILES: CC[C@H](C)[C@H](NC(=O)[C@H](CCC(=O)O)NC(=O)[C@H](CO)NC(=O)[C@@H](NC(=O)[C@@H](N)CO)C(C)C)C(=O)N[C@@H](CCC(N)=O)C(=O)N[C@@H](CC(C)C)C(=O)N[C@@H](CCSC)C(=O)N[C@@H](Cc1c[nH]cn1)C(=O)N[C@@H](CC(N)=O)C(=O)N[C@@H](CC(C)C)C(=O)NCC(=O)N[C@@H](CCCCN)C(=O)N[C@@H](Cc1c[nH]cn1)C(=O)N[C@@H](CC(C)C)C(=O)N[C@@H](CC(N)=O)C(=O)N[C@@H](CO)C(=O)N[C@@H](CCSC)C(=O)N[C@@H](CCC(=O)O)C(=O)N[C@@H](CCCNC(=N)N)C(=O)N[C@H](C(=O)N[C@H]1CCC(=O)NCCCC[C@@H](C(=O)N[C@@H](CC(C)C)C(=O)N[C@@H](CC(C)C)C(=O)N[C@@H](CCC(N)=O)C(N)=O)NC(=O)[C@H](CCCNC(=N)N)NC(=O)[C@H](CC(C)C)NC(=O)[C@H](Cc2c[nH]c3ccccc23)NC1=O)C(C)C
Q: For B2, which AC-Stimulation (ED50%, nM) (PTH receptor) is on record?
A: 8.4 nM

Q: For SVSEIQLMHNLGKHLNSMERVEWLRKKL-NH2 [hPTH(1-28)NH2], which AC-Stimulation (ED50%, nM) (PTH receptor) is on record?
A: 24 nM

Q: For SVSEIQLMHNLGKHLNSMERVEWLRKKLQ-NH2 [hPTH(1-29)NH2], which AC-Stimulation (ED50%, nM) (PTH receptor) is on record?
A: 24 nM

B3: [Glu^17, Leu^27]cyclo(Lys^13-Glu^17, Glu^22-Lys^26)-hPTH-(1-31)-NH2 (peptide)
peptide: SVSEIQLMHNLGKHLNEMERVEWLRKLLQDV-NH2
modifications: lactam 13-17, 22-26; N-terminus assumed
SMILES: CC[C@H](C)[C@H](NC(=O)[C@H](CCC(=O)O)NC(=O)[C@H](CO)NC(=O)[C@@H](NC(=O)[C@@H](N)CO)C(C)C)C(=O)N[C@@H](CCC(N)=O)C(=O)N[C@@H](CC(C)C)C(=O)N[C@@H](CCSC)C(=O)N[C@@H](Cc1c[nH]cn1)C(=O)N[C@@H](CC(N)=O)C(=O)N[C@@H](CC(C)C)C(=O)NCC(=O)N[C@H]1CCCCNC(=O)CC[C@@H](C(=O)N[C@@H](CCSC)C(=O)N[C@@H](CCC(=O)O)C(=O)N[C@@H](CCCNC(=N)N)C(=O)N[C@H](C(=O)N[C@H]2CCC(=O)NCCCC[C@@H](C(=O)N[C@@H](CC(C)C)C(=O)N[C@@H](CC(C)C)C(=O)N[C@@H](CCC(N)=O)C(=O)N[C@@H](CC(=O)O)C(=O)N[C@H](C(N)=O)C(C)C)NC(=O)[C@H](CCCNC(=N)N)NC(=O)[C@H](CC(C)C)NC(=O)[C@H](Cc3c[nH]c4ccccc34)NC2=O)C(C)C)NC(=O)[C@H](CC(N)=O)NC(=O)[C@H](CC(C)C)NC(=O)[C@H](Cc2c[nH]cn2)NC1=O
Q: For B3, which AC-Stimulation (ED50%, nM) (PTH receptor) is on record?
A: 13.2 nM
